Test results from US20130252935A1, “Monobactams” (PFIZER INC., priority 2010, published 2013).
In brackets after ≈: the same amount, converted by molar mass.

Tests used:
Format in all cases: cell-based
[1] = tested on: Klebsiella pneumoniae 1000-02; assay: minimum inhibitory concentration (MIC) testing according to CLSI guidelines, Klebsiella pneumoniae; details: Klebsiella pneumoniae; ciprofloxacin-resistant, ESBL-expressing clinical isolate 1000-02; overnight incubation; lower of duplicate values; read-out: AB-MBT: Klebsiella pneumoniae 1000-02: MIC (MstRcnt)
Procedure, shortened: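 MIC by CLSI broth dilution with 2-fold concentration steps and overnight incubation; lowest concentration visibly inhibiting growth versus drug-free control. Ciprofloxacin-resistant, ESBL-expressing clinical isolate 1000-02. Run in duplicate, lower value reported when within 2-fold, with QC organisms and reference compounds per run.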

[2] = tested on: Acinetobacter baumannii/haemolyticus AB-3167; assay: minimum inhibitory concentration (MIC) testing according to CLSI guidelines, Acinetobacter; details: Acinetobacter baumannii; multidrug-resistant clinical isolate AB-3167; overnight incubation; lower of duplicate values; read-out: AB-MBT: Acinetobacter baumanii AB-3167: MIC (MstRcnt)
Procedure, shortened: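 Broth dilution MIC per CLSI M7-A8/M100-S20 against multidrug-resistant clinical isolate AB-3167, using 2-fold drug dilutions and overnight incubation; MIC is the lowest concentration without visible growth. Duplicates within 2-fold reported as the lower value, with control strains and reference compounds in range.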

[3] = tested on: Pseudomonas aeruginosa UC-12120; assay: minimum inhibitory concentration (MIC) testing according to CLSI guidelines, Pseudomonas aeruginosa; details: Pseudomonas aeruginosa, UC12120; UC-12120, wild-type, labeled as 1091-05; overnight incubation; lower of duplicate values; read-out: AB-MBT: Pseudomonas aeruginosa 1091-05: MIC (MstRcn)
Procedure, shortened: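 Broth dilution MIC per CLSI guidelines against wild-type P. aeruginosa UC-12120 (1091-05), using 2-fold drug dilutions and overnight incubation with visual reading of lowest growth-inhibiting concentration. Tested in duplicate; lower value reported when within 2-fold, with control organisms and reference compounds for quality control.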

Row | MIC [1] | MIC [3] | SMILES | MIC [2]
1 | 1 µg/mL (≈ 1.29 µM) | 4 µg/mL (≈ 5.18 µM) | CC(C)(O/N=C(\C(=O)N[C@@H]1C(=O)N(S(=O)(=O)O)[C@@H]1CNS(=O)(=O)c1cccc(C(=O)NCc2cc(=O)c(O)cn2O)c1)c1csc(N)n1)C(=O)O [Example 68, 2-({[(1Z)-1-(2-amino-1,3-thiazol-4-yl)-2-{[(2R,3S)-2-({[(3-{[(1,5-dihydroxy-4-oxo-1,4-dihydropyridin-2-yl)methyl]carbamoyl}phenyl)sulfonyl]amino}methyl)-4-oxo-1-sulfoazetidin-3-yl]amino}-2-oxoethylidene]amino}oxy)-2-methylpropanoic acid] | 4 µg/mL (≈ 5.18 µM)
2 | 1 µg/mL (≈ 1.65 µM) | 0.25 µg/mL (≈ 0.414 µM) | Nc1nc(/C(=N/OCC(=O)O)C(=O)N[C@@H]2C(=O)N(S(=O)(=O)O)[C@@H]2CNC(=O)NCc2cc(=O)c(O)cn2O)cs1 [Example 69, ({[(1Z)-1-(2-amino-1,3-thiazol-4-yl)-2-({(2R,3S)-2-[({[(1,5-dihydroxy-4-oxo-1,4-dihydropyridin-2-yl)methyl]carbamoyl}amino)methyl]-4-oxo-1-sulfoazetidin-3-yl}amino)-2-oxoethylidene]amino}oxy)acetic acid] | 0.25 µg/mL (≈ 0.414 µM)
